Patent publication US11117892B2, “Pyrrolo-pyridine derivative compound, method for preparing same, and pharmaceutical composition containing same as active ingredient for prevention or treatment of protein kinase-related diseases” (DAEGU-GYEONGBUK MEDICAL INNOVATION FOUNDATION, priority 2017, dated 2021)

Legend:
Assay in all cases: scanMAX Kinase assay panel
Assay type in all cases: binding
Details in all cases: read-out: % control
FLT3 = FLT3 (Homo sapiens (Human), UniProt P36888)
Description: (§1) DiscoverX Co. was asked to measure the enzyme (kinase) selectivity, and the experiment was performed using scanMAX™ Kinase assay panel.
(§2) (Example Compound−Positive Control)/(Negative Control−Positive Control)×100 [Equation 1]
(§3) Herein, the positive control indicates the compound showing the % control of 0%, and the negative control indicates DMSO showing the % control of 100%.

NEK9 = NEK9 (Homo sapiens (Human), UniProt Q8TD19)
Description: as §1, §2, §3

RAF1 = RAF1 (Homo sapiens (Human), UniProt P04049)
Description: as §1, §2, §3

NEK3 = NEK3 (Homo sapiens (Human), UniProt P51956)
Description: as §1, §2, §3

ICK = ICK (Homo sapiens (Human), UniProt Q9UPZ9)
Description: as §1, §2, §3

KIT(D816H) = KIT(D816H) (Homo sapiens (Human), UniProt P10721, D816H)
Description: as §1, §2, §3

TIE1 = TIE1 (Homo sapiens (Human), UniProt P35590)
Description: as §1, §2, §3

EGFR(L747-T751del, Sins) = EGFR(L747-T751del, Sins) (Homo sapiens (Human), UniProt P00533, DEL747-751/INS746S)
Description: as §1, §2, §3

MKNK2 = MKNK2 (Homo sapiens (Human), UniProt Q9HBH9)
Description: as §1, §2, §3

AMPK-alpha2 = AMPK-alpha2 (Homo sapiens (Human), UniProt P54646)
Description: as §1, §2, §3

SRPK1 = SRPK1 (Homo sapiens (Human), UniProt Q96SB4)
Description: as §1, §2, §3

PRKD1 = PRKD1 (Homo sapiens (Human), UniProt Q15139)
Description: as §1, §2, §3

BUB1 = BUB1 (Homo sapiens (Human), UniProt O43683)
Description: as §1, §2, §3

PDGFRB = PDGFRB (Homo sapiens (Human), UniProt P09619)
Description: as §1, §2, §3

EPHA8 = EPHA8 (Homo sapiens (Human), UniProt P29322)
Description: as §1, §2, §3

LIMK2 = LIMK2 (Homo sapiens (Human), UniProt P53671)
Description: as §1, §2, §3

MEK4 = MEK4 (Homo sapiens (Human), UniProt P45985)
Description: as §1, §2, §3

PRKX = PRKX (Homo sapiens (Human), UniProt P51817)
Description: as §1, §2, §3

ADCK4 = ADCK4 (Homo sapiens (Human), UniProt Q96D53)
Description: as §1, §2, §3

MEK1 = MEK1 (Homo sapiens (Human), UniProt Q02750)
Description: as §1, §2, §3

AURKA = AURKA (Homo sapiens (Human), UniProt O14965)
Description: as §1, §2, §3

PIK3CA(H1047Y) = PIK3CA(H1047Y) (Homo sapiens (Human), UniProt P42336, H1047Y)
Description: as §1, §2, §3

NIM1 = NIM1 (Homo sapiens (Human), UniProt Q8IY84)
Description: as §1, §2, §3

S6K1 = S6K1 (Homo sapiens (Human), UniProt P23443)
Description: as §1, §2, §3

PIM2 = PIM2 (Homo sapiens (Human), UniProt Q9P1W9)
Description: as §1, §2, §3

SBK1 = SBK1 (Homo sapiens (Human), UniProt Q52WX2)
Description: as §1, §2, §3

PIK3CA(E545A) = PIK3CA(E545A) (Homo sapiens (Human), UniProt P42336, E545A)
Description: as §1, §2, §3

ULK1 = ULK1 (Homo sapiens (Human), UniProt O75385)
Description: as §1, §2, §3

MAP4K3 = MAP4K3 (Homo sapiens (Human), UniProt Q8IVH8)
Description: as §1, §2, §3

JNK2 = JNK2 (Homo sapiens (Human), UniProt P45984)
Description: as §1, §2, §3

FAK = FAK (Homo sapiens (Human), UniProt Q05397)
Description: as §1, §2, §3

RET(V804M) = RET(V804M) (Homo sapiens (Human), UniProt P07949, V804M)
Description: as §1, §2, §3

PIK3CD = PIK3CD (Homo sapiens (Human), UniProt O00329)
Description: as §1, §2, §3

MST1 = MST1 (Homo sapiens (Human), UniProt Q13043)
Description: as §1, §2, §3

SgK110 = SgK110 (Homo sapiens (Human), UniProt P0C264)
Description: as §1, §2, §3

CSNK1G2 = CSNK1G2 (Homo sapiens (Human), UniProt P78368)
Description: as §1, §2, §3

[1] = target: ABL1(F317L)-nonphosphorylated (Homo sapiens (Human), UniProt P00519, F317L)
Description: as §1, §2, §3

MYO3B = MYO3B (Homo sapiens (Human), UniProt Q8WXR4)
Description: as §1, §2, §3

PRKCQ = PRKCQ (Homo sapiens (Human), UniProt Q04759)
Description: as §1, §2, §3

Chain of MST1 (Q13043 whole entry): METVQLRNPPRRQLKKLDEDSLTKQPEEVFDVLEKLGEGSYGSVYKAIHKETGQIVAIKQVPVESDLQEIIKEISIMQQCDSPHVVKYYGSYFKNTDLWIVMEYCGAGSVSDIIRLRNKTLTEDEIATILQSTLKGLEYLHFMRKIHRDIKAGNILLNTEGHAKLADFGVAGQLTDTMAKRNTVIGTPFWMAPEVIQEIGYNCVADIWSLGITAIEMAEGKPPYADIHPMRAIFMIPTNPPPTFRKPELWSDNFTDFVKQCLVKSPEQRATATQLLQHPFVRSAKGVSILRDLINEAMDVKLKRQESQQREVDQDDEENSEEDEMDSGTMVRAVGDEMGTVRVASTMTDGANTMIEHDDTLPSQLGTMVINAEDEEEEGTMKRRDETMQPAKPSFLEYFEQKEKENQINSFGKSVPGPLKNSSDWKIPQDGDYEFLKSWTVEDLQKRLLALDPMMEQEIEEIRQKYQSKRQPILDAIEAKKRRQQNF
Chain of AURKA (O14965 whole entry): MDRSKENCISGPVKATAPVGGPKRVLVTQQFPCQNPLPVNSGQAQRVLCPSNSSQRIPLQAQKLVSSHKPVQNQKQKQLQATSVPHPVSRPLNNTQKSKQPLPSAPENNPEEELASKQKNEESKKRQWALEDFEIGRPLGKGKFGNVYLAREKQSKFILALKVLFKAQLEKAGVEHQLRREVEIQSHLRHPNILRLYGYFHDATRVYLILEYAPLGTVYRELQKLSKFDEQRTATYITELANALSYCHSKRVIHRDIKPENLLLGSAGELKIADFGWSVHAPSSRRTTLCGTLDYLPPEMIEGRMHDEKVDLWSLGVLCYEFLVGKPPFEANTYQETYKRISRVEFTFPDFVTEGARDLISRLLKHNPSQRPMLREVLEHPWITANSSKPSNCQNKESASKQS
Chain of SBK1 (Q52WX2 whole entry): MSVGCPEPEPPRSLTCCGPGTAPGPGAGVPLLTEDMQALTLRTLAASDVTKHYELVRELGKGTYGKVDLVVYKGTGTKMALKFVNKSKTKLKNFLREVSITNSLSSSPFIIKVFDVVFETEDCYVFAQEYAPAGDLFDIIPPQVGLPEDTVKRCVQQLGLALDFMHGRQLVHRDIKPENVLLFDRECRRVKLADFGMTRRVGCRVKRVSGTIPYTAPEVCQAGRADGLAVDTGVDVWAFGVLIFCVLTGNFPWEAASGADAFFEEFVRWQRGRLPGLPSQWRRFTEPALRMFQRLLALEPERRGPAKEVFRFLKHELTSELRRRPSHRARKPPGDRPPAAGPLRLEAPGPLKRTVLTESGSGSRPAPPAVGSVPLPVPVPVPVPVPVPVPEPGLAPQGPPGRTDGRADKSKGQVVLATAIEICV
Chain of MYO3B (Q8WXR4 whole entry): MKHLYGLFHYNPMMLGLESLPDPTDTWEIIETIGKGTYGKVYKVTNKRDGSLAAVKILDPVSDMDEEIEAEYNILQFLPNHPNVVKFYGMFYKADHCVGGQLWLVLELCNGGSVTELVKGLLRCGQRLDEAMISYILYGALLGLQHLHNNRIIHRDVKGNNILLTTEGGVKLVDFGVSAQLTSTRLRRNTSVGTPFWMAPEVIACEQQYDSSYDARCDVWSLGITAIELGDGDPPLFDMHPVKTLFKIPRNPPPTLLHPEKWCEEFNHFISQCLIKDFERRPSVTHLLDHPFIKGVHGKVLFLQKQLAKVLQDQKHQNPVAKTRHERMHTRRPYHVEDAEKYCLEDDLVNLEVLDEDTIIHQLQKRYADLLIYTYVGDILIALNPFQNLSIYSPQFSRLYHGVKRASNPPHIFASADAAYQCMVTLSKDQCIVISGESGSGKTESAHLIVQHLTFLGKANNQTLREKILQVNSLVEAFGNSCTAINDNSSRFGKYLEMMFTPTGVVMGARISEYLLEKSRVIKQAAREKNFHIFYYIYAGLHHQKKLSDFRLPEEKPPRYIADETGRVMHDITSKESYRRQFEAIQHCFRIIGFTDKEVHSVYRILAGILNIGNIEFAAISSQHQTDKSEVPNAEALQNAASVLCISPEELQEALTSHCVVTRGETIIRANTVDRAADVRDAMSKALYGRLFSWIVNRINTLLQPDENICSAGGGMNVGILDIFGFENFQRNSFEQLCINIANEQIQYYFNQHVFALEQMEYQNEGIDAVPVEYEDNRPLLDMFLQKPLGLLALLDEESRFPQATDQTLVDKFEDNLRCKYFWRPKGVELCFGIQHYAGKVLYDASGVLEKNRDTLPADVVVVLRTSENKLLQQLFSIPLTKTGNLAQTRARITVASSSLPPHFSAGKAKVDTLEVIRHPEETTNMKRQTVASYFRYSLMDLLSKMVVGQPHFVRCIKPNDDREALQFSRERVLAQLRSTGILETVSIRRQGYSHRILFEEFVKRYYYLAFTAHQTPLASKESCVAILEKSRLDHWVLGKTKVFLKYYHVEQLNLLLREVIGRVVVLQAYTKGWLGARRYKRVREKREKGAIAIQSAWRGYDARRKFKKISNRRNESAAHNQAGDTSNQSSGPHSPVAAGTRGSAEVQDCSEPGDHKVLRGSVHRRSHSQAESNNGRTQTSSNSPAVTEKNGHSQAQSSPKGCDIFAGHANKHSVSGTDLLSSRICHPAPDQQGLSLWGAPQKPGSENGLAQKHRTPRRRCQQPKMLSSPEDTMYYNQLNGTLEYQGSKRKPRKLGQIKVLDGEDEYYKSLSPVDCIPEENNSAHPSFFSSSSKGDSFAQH
Chain of LIMK2 (P53671 whole entry): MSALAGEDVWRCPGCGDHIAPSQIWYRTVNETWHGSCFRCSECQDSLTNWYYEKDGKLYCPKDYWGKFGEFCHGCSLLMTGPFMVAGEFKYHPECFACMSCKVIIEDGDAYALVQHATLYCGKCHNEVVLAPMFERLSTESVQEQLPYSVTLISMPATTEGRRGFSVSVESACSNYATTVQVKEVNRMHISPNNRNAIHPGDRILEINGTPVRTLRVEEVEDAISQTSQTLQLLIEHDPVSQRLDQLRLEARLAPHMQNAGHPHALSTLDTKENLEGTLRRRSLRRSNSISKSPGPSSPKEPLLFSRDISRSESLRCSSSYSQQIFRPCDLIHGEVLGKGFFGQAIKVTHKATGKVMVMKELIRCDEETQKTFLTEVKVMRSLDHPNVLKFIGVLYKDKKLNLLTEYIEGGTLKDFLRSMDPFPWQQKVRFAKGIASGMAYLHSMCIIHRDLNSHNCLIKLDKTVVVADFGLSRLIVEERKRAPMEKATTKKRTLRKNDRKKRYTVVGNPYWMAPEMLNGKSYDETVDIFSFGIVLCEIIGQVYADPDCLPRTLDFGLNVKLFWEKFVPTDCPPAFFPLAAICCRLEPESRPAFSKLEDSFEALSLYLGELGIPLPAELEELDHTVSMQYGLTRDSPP
Chain of MKNK2 (Q9HBH9 whole entry): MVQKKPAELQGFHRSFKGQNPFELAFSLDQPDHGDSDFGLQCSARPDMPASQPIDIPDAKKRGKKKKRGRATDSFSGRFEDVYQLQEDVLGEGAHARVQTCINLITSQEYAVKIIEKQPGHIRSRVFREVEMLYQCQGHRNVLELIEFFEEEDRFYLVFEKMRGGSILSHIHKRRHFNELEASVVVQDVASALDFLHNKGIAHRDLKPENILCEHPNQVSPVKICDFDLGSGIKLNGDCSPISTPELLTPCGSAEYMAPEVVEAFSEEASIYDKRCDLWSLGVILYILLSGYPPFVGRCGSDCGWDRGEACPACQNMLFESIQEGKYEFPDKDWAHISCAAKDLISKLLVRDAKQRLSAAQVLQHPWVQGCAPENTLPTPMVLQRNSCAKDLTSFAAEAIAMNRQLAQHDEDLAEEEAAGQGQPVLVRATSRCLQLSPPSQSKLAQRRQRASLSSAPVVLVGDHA
Chain of PIM2 (Q9P1W9 whole entry): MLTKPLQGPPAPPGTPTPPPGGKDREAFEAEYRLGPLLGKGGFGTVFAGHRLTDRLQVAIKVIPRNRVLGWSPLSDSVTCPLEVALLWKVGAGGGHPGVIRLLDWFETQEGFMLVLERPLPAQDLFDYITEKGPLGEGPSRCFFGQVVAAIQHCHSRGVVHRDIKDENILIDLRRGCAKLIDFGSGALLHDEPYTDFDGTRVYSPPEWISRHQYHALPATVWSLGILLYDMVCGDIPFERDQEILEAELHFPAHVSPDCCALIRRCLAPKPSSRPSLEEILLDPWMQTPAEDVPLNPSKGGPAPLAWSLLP
Chain of EGFR(L747-T751del, Sins) (P00533 other isoform, or with tags, fused parts or gaps del 1-668/ins S behind 746/del 747-751/del 1012-1210 limits assumed): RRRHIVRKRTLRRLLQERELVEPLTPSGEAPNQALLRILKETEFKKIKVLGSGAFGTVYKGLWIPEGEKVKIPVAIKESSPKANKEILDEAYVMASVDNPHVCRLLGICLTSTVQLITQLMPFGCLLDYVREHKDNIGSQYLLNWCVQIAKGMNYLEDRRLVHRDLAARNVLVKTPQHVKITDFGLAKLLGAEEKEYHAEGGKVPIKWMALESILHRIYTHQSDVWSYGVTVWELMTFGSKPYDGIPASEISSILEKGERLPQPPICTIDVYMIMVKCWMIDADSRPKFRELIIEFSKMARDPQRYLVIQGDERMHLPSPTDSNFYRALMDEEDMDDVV
Chain of ADCK4 (Q96D53 whole entry): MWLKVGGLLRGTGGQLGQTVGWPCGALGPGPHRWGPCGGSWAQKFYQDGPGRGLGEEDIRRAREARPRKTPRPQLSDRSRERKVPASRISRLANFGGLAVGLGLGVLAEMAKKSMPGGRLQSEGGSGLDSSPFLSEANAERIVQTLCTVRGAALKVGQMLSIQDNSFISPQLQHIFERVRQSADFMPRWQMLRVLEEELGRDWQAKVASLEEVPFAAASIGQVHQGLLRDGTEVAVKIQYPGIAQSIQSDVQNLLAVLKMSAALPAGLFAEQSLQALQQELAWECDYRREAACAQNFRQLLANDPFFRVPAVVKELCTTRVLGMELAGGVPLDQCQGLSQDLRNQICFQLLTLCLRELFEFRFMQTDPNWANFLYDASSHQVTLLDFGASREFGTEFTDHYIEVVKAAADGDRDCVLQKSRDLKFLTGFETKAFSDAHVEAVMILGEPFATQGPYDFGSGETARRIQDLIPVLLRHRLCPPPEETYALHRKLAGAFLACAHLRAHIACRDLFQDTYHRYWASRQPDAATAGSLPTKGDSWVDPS

SMILES	remaining binding at 1 µM (FLT3) [%]	remaining binding at 1 µM (NEK9) [%]	remaining binding at 1 µM (RAF1) [%]	remaining binding at 1 µM (NEK3) [%]	remaining binding at 1 µM (ICK) [%]	remaining binding at 1 µM (KIT(D816H)) [%]	remaining binding at 1 µM (TIE1) [%]	remaining binding at 1 µM (EGFR(L747-T751del, Sins)) [%]	remaining binding at 1 µM (MKNK2) [%]	remaining binding at 1 µM (AMPK-alpha2) [%]	remaining binding at 1 µM (SRPK1) [%]	remaining binding at 1 µM (PRKD1) [%]	remaining binding at 1 µM (BUB1) [%]	remaining binding at 1 µM (PDGFRB) [%]	remaining binding at 1 µM (EPHA8) [%]	remaining binding at 1 µM (LIMK2) [%]	remaining binding at 1 µM (MEK4) [%]	remaining binding at 1 µM (PRKX) [%]	remaining binding at 1 µM (ADCK4) [%]	remaining binding at 1 µM (MEK1) [%]	further results
CCNc1cc(Nc2ccc(C(=O)N3CCC(N4CCOCC4)CC3)cc2OC)nc2[nH]cc(C(F)(F)F)c12 [Example 57, (4-((4-(ethylamino)-3-(trifluoromethyl)-1H-pyrrolo[2,3-b]pyridin-6-yl)amino)-3-methoxyphenyl) (4-morpholinopiperidin-1-yl)methanone]	100	89	72	93	100	96	100	97	95	98	85	73	99	92	100	99	98	80	75	100	remaining binding at 1 µM (AURKA): 83%; remaining binding at 1 µM (PIK3CA(H1047Y)): 73%; remaining binding at 1 µM (NIM1): 100%; remaining binding at 1 µM (S6K1): 100%; remaining binding at 1 µM (PIM2): 98%; remaining binding at 1 µM (SBK1): 90%; remaining binding at 1 µM (PIK3CA(E545A)): 77%; remaining binding at 1 µM (ULK1): 94%; remaining binding at 1 µM (MAP4K3): 91%; remaining binding at 1 µM (JNK2): 52%; remaining binding at 1 µM (FAK): 77%; remaining binding at 1 µM (RET(V804M)): 95%; remaining binding at 1 µM (PIK3CD): 100%; remaining binding at 1 µM (MST1): 76%; remaining binding at 1 µM (SgK110): 96%; remaining binding at 1 µM (CSNK1G2): 86%; remaining binding at 1 µM [1]: 86%; remaining binding at 1 µM (MYO3B): 83%; remaining binding at 1 µM (PRKCQ): 96%
CCNc1cc(Nc2ccc(C(=O)N3CCC(N4CCOCC4)CC3)cc2OC)nc2[nH]cc(C#N)c12 [Example 18, 4-(ethylamino)-6-((2-methoxy-4-(4-morpholinopiperidine-1-carbonyl)phenyl)amino)-1H-pyrrolo[2,3-b]pyridine-3-carbonitrile]	83	91	97	87	84	80	88	100	60	100	89	14	76	76	85	90	0	92	100	19	remaining binding at 1 µM (AURKA): 94%; remaining binding at 1 µM (PIK3CA(H1047Y)): 71%; remaining binding at 1 µM (NIM1): 81%; remaining binding at 1 µM (S6K1): 70%; remaining binding at 1 µM (PIM2): 96%; remaining binding at 1 µM (SBK1): 86%; remaining binding at 1 µM (PIK3CA(E545A)): 100%; remaining binding at 1 µM (ULK1): 78%; remaining binding at 1 µM (MAP4K3): 93%; remaining binding at 1 µM (JNK2): 0.1%; remaining binding at 1 µM (FAK): 78%; remaining binding at 1 µM (RET(V804M)): 99%; remaining binding at 1 µM (PIK3CD): 100%; remaining binding at 1 µM (MST1): 99%; remaining binding at 1 µM (SgK110): 100%; remaining binding at 1 µM (CSNK1G2): 27%; remaining binding at 1 µM [1]: 95%; remaining binding at 1 µM (MYO3B): 73%; remaining binding at 1 µM (PRKCQ): 94%
